# Laboratory results reported in PubChem BioAssay AID2060624 (Molecular Pharmacology Branch, DTP, NCI, 2025).
# Tested on: 217524-143-R1-J4-PDC spheroids with HUVEC/MSC, viability
# Assay: Anticancer human tumor 217524-143-R1-J4-PDC patient-derived pancreatic carcinoma cell line growth inhibition [CLK]
# Conditions: for IC50: curve of first compound; for viability, T/C: stronger effect = lower value
# Outline: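 Multi-cell-type spheroids combined patient-derived tumor cells with HUVEC endothelial cells and human mesenchymal stem cells. Paired agents were dosed in half-log steps down from about clinical Cmax, or from 10 microM where Cmax was unknown.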
# [1] = second compound 0.0316 µM, first compound 0.0316 µM
# [2] = second compound 0.0316 µM, first compound 0.1 µM
# [3] = second compound 0.0316 µM, first compound 0.316 µM
# [4] = second compound 0.0316 µM, first compound 1 µM
# [5] = second compound 0.0316 µM, first compound 3.16 µM
# [6] = second compound 0.0316 µM, first compound 10 µM
# [7] = second compound 0.1 µM, first compound 0.0316 µM
# [8] = second compound 0.1 µM, first compound 0.1 µM
# [9] = second compound 0.1 µM, first compound 0.316 µM
# [10] = second compound 0.1 µM, first compound 1 µM
# [11] = second compound 0.1 µM, first compound 3.16 µM
# [12] = second compound 0.1 µM, first compound 10 µM
# [13] = second compound 0.316 µM, first compound 0.0316 µM
# [14] = second compound 0.316 µM, first compound 0.1 µM
# [15] = second compound 0.316 µM, first compound 0.316 µM
# [16] = second compound 0.316 µM, first compound 1 µM
# [17] = second compound 0.316 µM, first compound 3.16 µM
# [18] = second compound 0.316 µM, first compound 10 µM
# [19] = second compound 1 µM, first compound 0.0316 µM
# [20] = second compound 1 µM, first compound 0.1 µM
# [21] = second compound 1 µM, first compound 0.316 µM
# [22] = second compound 1 µM, first compound 1 µM
# [23] = second compound 1 µM, first compound 3.16 µM
# [24] = second compound 1 µM, first compound 10 µM
# [25] = second compound 3.16 µM, first compound 0.0316 µM
# [26] = second compound 3.16 µM, first compound 0.1 µM
# [27] = second compound 3.16 µM, first compound 0.316 µM
# [28] = second compound 3.16 µM, first compound 1 µM
# [29] = second compound 3.16 µM, first compound 3.16 µM
# [30] = second compound 3.16 µM, first compound 10 µM
# [31] = second compound 10 µM, first compound 0.0316 µM
# [32] = second compound 10 µM, first compound 0.1 µM
# [33] = second compound 10 µM, first compound 0.316 µM
# [34] = second compound 10 µM, first compound 1 µM
# [35] = second compound 10 µM, first compound 3.16 µM
# [36] = second compound 10 µM, first compound 10 µM
# 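Further: spheroids exposed to agents for seven days before reading.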
# 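Wherever viability, T/C is given: 100% = DMSO vehicle control viability.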
smiles,measurement,setting,value
C#Cc1c(F)ccc2cc(O)cc(-c3ncc4c(N5CC6CCC(C5)N6)nc(OCC56CCCN5CC(F)C6)nc4c3F)c12 (stereo not drawn) + CN1CCN(c2cc(C(=O)Nc3cc4cc(-c5cnn(C)c5)ccc4cn3)ccn2)CC1,IC50,second compound 0.0316 µM,> 10 µM
same,IC50,second compound 0.1 µM,3.21 µM
same,IC50,second compound 0.316 µM,< 0.0316 µM
same,IC50,second compound 1 µM,< 0.0316 µM
same,IC50,second compound 3.16 µM,< 0.0316 µM
same,IC50,second compound 10 µM,< 0.0316 µM
same,"viability, T/C",[1],76.1%
same,"viability, T/C",[2],74.4%
same,"viability, T/C",[3],65.5%
same,"viability, T/C",[4],85.1%
same,"viability, T/C",[5],81.1%
same,"viability, T/C",[6],55%
same,"viability, T/C",[7],53.6%
same,"viability, T/C",[8],46.2%
same,"viability, T/C",[9],53.2%
same,"viability, T/C",[10],55.5%
same,"viability, T/C",[11],49.3%
same,"viability, T/C",[12],37%
same,"viability, T/C",[13],28.3%
same,"viability, T/C",[14],23.9%
same,"viability, T/C",[15],25.2%
same,"viability, T/C",[16],21.6%
same,"viability, T/C",[17],24.8%
same,"viability, T/C",[18],18%
same,"viability, T/C",[19],2.18%
same,"viability, T/C",[20],2.28%
same,"viability, T/C",[21],3.15%
same,"viability, T/C",[22],2.36%
same,"viability, T/C",[23],1.66%
same,"viability, T/C",[24],2.26%
same,"viability, T/C",[25],0.79%
same,"viability, T/C",[26],0.88%
same,"viability, T/C",[27],0.86%
same,"viability, T/C",[28],0.96%
same,"viability, T/C",[29],0.86%
same,"viability, T/C",[30],0.79%
same,"viability, T/C",[31],0.25%
same,"viability, T/C",[32],0.25%
same,"viability, T/C",[33],0.2%
same,"viability, T/C",[34],0.23%
same,"viability, T/C",[35],0.23%
same,"viability, T/C",[36],0.43%
CC(CO)NC(=O)c1cc(-c2ccc(Cl)cc2)nn(-c2cnn(C)c2)c1=O (stereo not drawn) + CN1CCN(c2cc(C(=O)Nc3cc4cc(-c5cnn(C)c5)ccc4cn3)ccn2)CC1,IC50,second compound 0.0316 µM,> 10 µM
same,IC50,second compound 0.1 µM,0.229 µM
same,IC50,second compound 0.316 µM,< 0.0316 µM
same,IC50,second compound 1 µM,< 0.0316 µM
same,IC50,second compound 3.16 µM,< 0.0316 µM
same,IC50,second compound 10 µM,< 0.0316 µM
same,"viability, T/C",[1],81%
same,"viability, T/C",[2],83.5%
same,"viability, T/C",[3],68.8%
same,"viability, T/C",[4],71.7%
same,"viability, T/C",[5],92%
same,"viability, T/C",[6],54.1%
same,"viability, T/C",[7],73.4%
same,"viability, T/C",[8],53.2%
same,"viability, T/C",[9],47.8%
same,"viability, T/C",[10],51%
same,"viability, T/C",[11],53.9%
same,"viability, T/C",[12],39.6%
same,"viability, T/C",[13],14.4%
same,"viability, T/C",[14],19.4%
same,"viability, T/C",[15],18.1%
same,"viability, T/C",[16],18.6%
same,"viability, T/C",[17],19.8%
same,"viability, T/C",[18],16.7%
same,"viability, T/C",[19],1.96%
same,"viability, T/C",[20],2.25%
same,"viability, T/C",[21],2.62%
same,"viability, T/C",[22],1.95%
same,"viability, T/C",[23],1.85%
same,"viability, T/C",[24],1.4%
same,"viability, T/C",[25],1.05%
same,"viability, T/C",[26],1.27%
same,"viability, T/C",[27],0.89%
same,"viability, T/C",[28],0.99%
same,"viability, T/C",[29],0.97%
same,"viability, T/C",[30],0.84%
same,"viability, T/C",[31],0.26%
same,"viability, T/C",[32],0.3%
same,"viability, T/C",[33],0.26%
same,"viability, T/C",[34],0.29%
same,"viability, T/C",[35],0.33%
same,"viability, T/C",[36],0.27%
CC(Nc1ccc2c(c1)OCCn1cc(N3C(=O)OCC3C(F)F)nc1-2)C(N)=O (stereo not drawn) + CN1CCN(c2cc(C(=O)Nc3cc4cc(-c5cnn(C)c5)ccc4cn3)ccn2)CC1,IC50,second compound 0.0316 µM,0.0618 µM
same,IC50,second compound 0.1 µM,< 0.0316 µM
same,IC50,second compound 0.316 µM,< 0.0316 µM
same,IC50,second compound 1 µM,< 0.0316 µM
same,IC50,second compound 3.16 µM,< 0.0316 µM
same,IC50,second compound 10 µM,< 0.0316 µM
same,"viability, T/C",[1],75.1%
same,"viability, T/C",[2],30.5%
same,"viability, T/C",[3],16.9%
same,"viability, T/C",[4],6.57%
same,"viability, T/C",[5],5.62%
same,"viability, T/C",[6],3.9%
same,"viability, T/C",[7],40.8%
same,"viability, T/C",[8],24.6%
same,"viability, T/C",[9],10.2%
same,"viability, T/C",[10],5.26%
same,"viability, T/C",[11],4.73%
same,"viability, T/C",[12],3.98%
same,"viability, T/C",[13],19.2%
same,"viability, T/C",[14],9.36%
same,"viability, T/C",[15],6.98%
same,"viability, T/C",[16],4.68%
same,"viability, T/C",[17],3.77%
same,"viability, T/C",[18],3.27%
same,"viability, T/C",[19],2.47%
same,"viability, T/C",[20],1.63%
same,"viability, T/C",[21],1.31%
same,"viability, T/C",[22],1.2%
same,"viability, T/C",[23],1.03%
same,"viability, T/C",[24],0.93%
same,"viability, T/C",[25],0.62%
same,"viability, T/C",[26],0.64%
same,"viability, T/C",[27],0.73%
same,"viability, T/C",[28],0.58%
same,"viability, T/C",[29],0.75%
same,"viability, T/C",[30],0.64%
same,"viability, T/C",[31],0.11%
same,"viability, T/C",[32],0.18%
same,"viability, T/C",[33],0.18%
same,"viability, T/C",[34],0.13%
same,"viability, T/C",[35],0.27%
same,"viability, T/C",[36],0.2%
COc1c(OCCCN2CCOCC2)ccc2c3n(c(=NC(=O)c4cnc(N)nc4)nc12)CCN3 + CN1CCN(c2cc(C(=O)Nc3cc4cc(-c5cnn(C)c5)ccc4cn3)ccn2)CC1,IC50,second compound 0.0316 µM,0.0063 µM
same,IC50,second compound 0.1 µM,< 0.00316 µM
same,IC50,second compound 0.316 µM,< 0.00316 µM
same,IC50,second compound 1 µM,< 0.00316 µM
same,IC50,second compound 3.16 µM,< 0.00316 µM
same,IC50,second compound 10 µM,< 0.00316 µM
same,"viability, T/C","second compound 0.0316 µM, first compound 0.00316 µM",72.3%
same,"viability, T/C","second compound 0.0316 µM, first compound 0.01 µM",35.1%
same,"viability, T/C",[1],8.37%
same,"viability, T/C",[2],4.22%
same,"viability, T/C",[3],3.38%
same,"viability, T/C",[4],2.18%
same,"viability, T/C","second compound 0.1 µM, first compound 0.00316 µM",40.3%
same,"viability, T/C","second compound 0.1 µM, first compound 0.01 µM",24.1%
same,"viability, T/C",[7],7.97%
same,"viability, T/C",[8],4.61%
same,"viability, T/C",[9],2.58%
same,"viability, T/C",[10],2.72%
same,"viability, T/C","second compound 0.316 µM, first compound 0.00316 µM",18.8%
same,"viability, T/C","second compound 0.316 µM, first compound 0.01 µM",12.1%
same,"viability, T/C",[13],5.45%
same,"viability, T/C",[14],3.87%
same,"viability, T/C",[15],2.75%
same,"viability, T/C",[16],2.26%
same,"viability, T/C","second compound 1 µM, first compound 0.00316 µM",2.94%
same,"viability, T/C","second compound 1 µM, first compound 0.01 µM",1.77%
same,"viability, T/C",[19],1.27%
same,"viability, T/C",[20],1.02%
same,"viability, T/C",[21],0.59%
same,"viability, T/C",[22],0.49%
same,"viability, T/C","second compound 3.16 µM, first compound 0.00316 µM",0.65%
same,"viability, T/C","second compound 3.16 µM, first compound 0.01 µM",0.68%
same,"viability, T/C",[25],0.5%
same,"viability, T/C",[26],0.47%
same,"viability, T/C",[27],0.5%
same,"viability, T/C",[28],0.45%
same,"viability, T/C","second compound 10 µM, first compound 0.00316 µM",0.14%
same,"viability, T/C","second compound 10 µM, first compound 0.01 µM",0.14%
same,"viability, T/C",[31],0.19%
same,"viability, T/C",[32],0.13%
same,"viability, T/C",[33],0.25%
same,"viability, T/C",[34],0.19%
